Data set [1] deals with rabbit platelet (ADP-induced aggregation). Put plainly: Platelet aggregation inhibitory effect, ADP-induced aggregation in rabbit platelet. It is filed as cell-based. The conditions noted are these: Oryctolagus cuniculus; for inhibition at 100 µM: concentration of the test compound solution 10^-4 mole; for inhibition at 100 µM / inhibition at 10 µM: read-out: Inhibition effect on ADP-induced aggregation in rabbit platelet; for inhibition at 10 µM: concentration of the test compound solution 10^-5 mole; for inhibition at 1 µM: concentration of the test compound solution 10^-6 mole. The text has this:
(§1) The blood sample used for the test is a 1/9 (by volume) mixture of sodium citrate and whole blood collected from rabbit. Said sample is subjected to 10-minute centrifugal separation at 1,000 r.p.m. to obtain a platelet rich plasma (PRP). The thus obtained PRP is separated, and the remaining blood sample is further subjected to 15-minute centrifugal separation at 3,000 r.p.m. to obtain a platelet poor plasma (PPP).
(§2) The number of platelets in the PRP is counted by the Brecher-Clonkite Method, and the PRP is diluted with the PPP to prepare a PRP sample with platelet concentration of 300,000/mm^3 for the adenosine diphosphate (ADP)-induced aggregation test. There is also prepared a PRP sample with platelet concentration of 450,000/mm^3 for the collagen-induced aggregation test.
(§3) 0.6 Ml of said PRP sample is added into 0.01 ml of a solution of a test compound of a predetermined concentration and the mixture is placed in a 37° C. thermostat for one minute. Then 0.07 ml of an ADP or collagen solution is added to the mixture. Transmittance of this mixture is determined and the change of transmittance is recorded by using the aggregometer at stirrer speed of 1,100 r.p.m. […] ADP is adjusted to a concentration of 7.5×10^-5 M, and the collagen solution is prepared by triturating 100 mg of collagen with 5 ml of said buffer and the supernatant is used as collagen inducer. Adenosine and acetylsalicylic acid are used as controls for the ADP-induced aggregation test and the collagen-induced aggregation test, respectively. The platelet aggregation inhibitory effect is measured in terms of percent inhibition with respect to the aggregation rate of the controls. The aggregation rate is calculated from the following formula: [formula] wherein a: transmittance of PRP
(§4) b: transmittance of PRP containing a test compound and an aggregation inducer
(§5) The compounds tested are as follows.

Another data set is described as follows: Acute toxicity test. Particulars: mouse, in vivo; male mice, oral administration. The protocol: The test compounds were administered orally to the mice and LD50 (mg/kg) of the compounds was determined.
Data set [2] has as its system rabbit platelet (collagen-induced aggregation). As to the kind of experiment: Platelet aggregation inhibitory effect, collagen-induced aggregation in rabbit platelet. The conditions noted are these: Oryctolagus cuniculus, read-out: Inhibition effect on collagen-induced aggregation in rabbit platelet; for inhibition at 100 µM: concentration of the test compound solution 10^-4 mole; for inhibition at 10 µM: concentration of the test compound solution 10^-5 mole; for inhibition at 1 µM: concentration of the test compound solution 10^-6 mole. It is filed as cell-based.
Description: as §1, §2, §3, §4, §5

In data set [3] the test system is cerebral blood flow, bastard dog. As to the kind of experiment: Increasing effect of cerebral blood flow in anesthetized dog. The conditions noted are these: Canis lupus familiaris, iv; for change in vivo at 0.3 mg/kg: dosage 300 μg/kg. It is filed as in vivo. As to the method:
(Test of increasing effect of cerebral blood flow)
Thus, a bastard dog (male, 12-20 kg of body weight) was fixed in a prone (position) and was anesthetized with […] of pentobarbital sodium and forced to breathe at a frequency of respiration of 20 times/minute. Then, the skull was bared and the surface bone was removed to expose the venous sinus by using a grinder and the venous blood was taken out from the venas which was cannulizated. The amount of venous blood flow was measured by using an electromagnetic blood flow meter and next measured by using drop-counter to measure the number of drops of blood per 10 seconds.
The increasing effect of cerebral blood flow was calculated by comparing the number of blood drops in 30 seconds at the peak of increasement shown before and after the administration of compound to be tested. Each of the compounds to be tested was dissolved in dimethylformamide and diluted with physiological saline solution and administered through a cannule being inserted into the profunda femoris vein.

In another data set the test system is thrombosis. The conditions noted are these: administered orally or intravenously to mammals including humans; Japanese Patent Kokai No. 125,930/73; cited from earlier work.
For another data set, the system named is blood platelets. Particulars: at low concentration; Japanese Patent Kokai No. 125,930/73; cited from earlier work.
Setting [4] is: through profunda femoris vein, dog.

SMILES strings stand for the structures.

The text below walks through data of US4277479A, “Tetrazolylalkoxycarbostyril derivatives and pharmaceutical compositions containing them” (Otsuka Pharmaceutical Co., Ltd., priority 1978, dated 1981).

A word on the inhibition: it is the change of the read-out against control, counted positive when it falls. For orientation: LD50 means the dose at which mortality reaches 50%. Read a high LD50 as lower toxicity. Take `O=c1ccc2cc(OCCCc3nnnn3Cc3ccccc3)ccc2[nH]1` [Compound 4, 6-[3-(1-Benzyltetrazol-5-yl)propoxy]carbostyril]: in data set [1], the inhibition at 100 µM stood at 100%, the inhibition at 10 µM stood at 45.5% and the inhibition at 1 µM was found to be 3.7%. In the data set “Acute toxicity test”, the 50% lethal dose (LD50) is more than 1000 mg/kg. Also, in data set [2], the inhibition at 100 µM was 100%, the inhibition at 10 µM came to 72.5% and the inhibition at 1 µM came to 10.8%. This molecule also had a change in vivo at 0.3 mg/kg in data set [3] (setting [4]) of 65.8%.

For `O=c1ccc2cc(OCCCc3nnnn3-c3ccccc3)ccc2[nH]1` [Compound 9, 6-[3-(1-Phenyltetrazol-5-yl)propoxy]carbostyril], in data set [1], the inhibition at 100 µM was 100%, the inhibition at 10 µM was 45.1% and the inhibition at 1 µM is 26.8%. Further, the LD50 in the data set “Acute toxicity test” was more than 1000 mg/kg. Also, in data set [2], the inhibition at 100 µM was found to be 100%, the inhibition at 10 µM stood at 100% and the inhibition at 1 µM turned out to be 32.8%. The change in vivo at 0.3 mg/kg in data set [3] (setting [4]) came out at 69.9%.

With `COc1ccc(Cc2nccc3cc(OC)c(OC)cc23)cc1OC` [Papaverine, papaverine, reference compound], the change in vivo at 1 mg/kg in data set [3] (read-out: Increasing effect of cerebral blood flow) came to 78.9%.

Regarding `CC(C)n1nnnc1CCCOc1ccc2[nH]c(=O)ccc2c1` [Compound 2, 6-[3-(1-Isopropyltetrazol-5-yl)propoxy]carbostyril], in data set [1], the inhibition at 100 µM was 74.7%, the inhibition at 10 µM turned out to be 36.8% and the inhibition at 1 µM was found to be 11.9%. In “Acute toxicity test”, this molecule displayed an LD50 of more than 1000 mg/kg. Moreover, in data set [2], the inhibition at 100 µM was 100%, the inhibition at 10 µM is 58.1% and the inhibition at 1 µM amounted to 11.8%.

As for `Cc1cc(=O)[nH]c2ccc(OCCCc3nnnn3C3CCCCC3)cc12` [Compound 10, 4-Methyl-6-[3-(1-cyclohexyltetrazol-5-yl)propoxy]carbostyril], in data set [1], the inhibition at 100 µM came to 100%, the inhibition at 10 µM was 61.7% and testing at 1 µM gave an inhibition of 28.1%. In “Acute toxicity test”, the median lethal dose (LD50) is more than 1000 mg/kg. In addition, in data set [2], the inhibition at 100 µM is 100%, the inhibition at 10 µM worked out at 100% and the inhibition at 1 µM turned out to be 18.2%.

As to `CCc1ccc(-n2nnnc2COc2ccc3c(c2)CCC(=O)N3)cc1` [Compound 15, 6-[1-(4-Ethylphenyl)tetrazol-5-yl-methoxy]3,4-dihydrocarbostyril], in data set [1], the inhibition at 100 µM was 78.5% and the inhibition at 10 µM worked out at 38.9%. For the same molecule, in the data set “Acute toxicity test”, the 50% lethal dose (LD50) is more than 1000 mg/kg. In data set [2], the inhibition at 100 µM was 100% and the inhibition at 10 µM is 35.1%.

For the molecule `O=C1CCc2cc(OCCCc3nnnn3C3CCCCC3)ccc2N1` [Compound 3, 6-[3-(1-Cyclohexyltetrazol-5-yl)propoxy]-3,4-dihydrocarbostyril], in data set [1], the inhibition at 100 µM is 76.7%, the inhibition at 10 µM worked out at 59.6% and testing at 1 µM gave an inhibition of 9.6%. Moreover, the median lethal dose (LD50) in “Acute toxicity test” is more than 1000 mg/kg. For the same molecule, in data set [2], the inhibition at 100 µM is 100%, the inhibition at 10 µM is 53.5% and the inhibition at 1 µM was 10.3%. Moreover, the change in vivo at 0.03 mg/kg in data set [3] (dosage 30 μg/kg, through profunda femoris vein, dog) turned out to be 69%.

`O=C1CCc2c(cccc2OCCCc2nnnn2C2CCCCC2)N1` [Compound 11, 5-[3-(1-Cyclohexyltetrazol-5-yl)propoxy]-3,4-dihydrocarbostyril]: in data set [1], the inhibition at 100 µM was found to be 90.4% and the inhibition at 10 µM was 30.2%. Besides, the LD50 in the data set “Acute toxicity test” is more than 1000 mg/kg. In addition, in data set [2], the inhibition at 100 µM was 98.4% and the inhibition at 10 µM is 42.4%.

As for `O=c1ccc2cc(OCCCc3nnnn3C3CCCCC3)ccc2n1Cc1ccccc1` [Compound 12, 1-Benzyl-6-[3-(1-cyclohexyltetrazol-5-yl)propoxy]carbostyril], in data set [1], the inhibition at 100 µM came to 76.8% and the inhibition at 10 µM was found to be 35.2%. The 50% lethal dose (LD50) in the data set “Acute toxicity test” was more than 1000 mg/kg. Also, in data set [2], the inhibition at 100 µM stood at 92.6%, the inhibition at 10 µM was determined as 41.5% and the inhibition at 1 µM came to 21.8%.

On to `COc1cc(C(=O)N2C(=O)CCc3cc(OCCCc4nnnn4C4CCCCC4)ccc32)cc(OC)c1OC` [Compound 16, 1-(3,4,5-Trimethoxybenzoyl)-6-[3-(1-cyclohexyltetrazol-5-yl)propoxy]-3,4-dihydrocarbostyril], for which, in data set [1], the inhibition at 100 µM worked out at 75.6% and the inhibition at 10 µM turned out to be 48.4%. Further, the LD50 in the data set “Acute toxicity test” is more than 1000 mg/kg. In data set [2], the inhibition at 100 µM was 91.3% and the inhibition at 10 µM stood at 45.3%.

Regarding `CC(=O)N1C(=O)CCc2cc(OCCCc3nnnn3C3CCCCC3)ccc21` [Compound 14, 1-Acetyl-6-[3-(1-cyclohexyltetrazol-5-yl)propoxy]-3,4-dihydrocarbostyril], the inhibition at 100 µM was 79.4% in data set [1] and 86.8% in data set [2]. In addition, the results for the inhibition at 10 µM in data set [1] and in data set [2] were 43.2% and 47.3%, respectively. Also, the LD50 in the data set “Acute toxicity test” was more than 1000 mg/kg.

In the case of `CC(C)(C)NCC(O)COc1cccc2c1CCC(=O)N2` (stereo not shown) [5-(2'-hydroxy-3-tert-butylamino)-propoxy-3,4-dihydrocarbostyril], the “effectiveness for preventing and treating thrombosis” value in the data set with thrombosis is “very effective for preventing and treating thrombosis”. Also, the “inhibition of the aggregation of blood platelets” value in the data set with blood platelets is given as “could specifically inhibit the aggregation of blood platelets”.
